Laboratory results: patent US4624952A, “Pyridazine and pyrimidine compounds active on the central nervous system as sedatives or anticonvulsants” (Sanofi, priority 1983, dated 1986)
Where a name gives a salt, the structure may show the parent alone. Read-outs that look alike come from different tables or passages of the source.

Experiments:
[1] = system: convulsions induced by an electric shock in Charles River CDl mice; assay: Antagonism of the convulsions induced by an electric shock; assay type: in vivo; details: 1 h; mouse; oral, 60 min before electric shock (12.5 volts, 0.3 seconds); read-out: Median effective dose (ED50) Antagonism of the electric shock
Protocol: (§1) The anti-epileptic effect of the products in the mouse was assessed on a model of convulsions provoked by an electric shock, and on a model of convulsions induced by a chemical agent: bicuculline.
The test was slightly modified from that of SWINYARD et al (1952) and ASAMI et al (1974). The equipment was composed of a Racia shock generator provided with two ocular electrodes delivering a current of 12.5 volts for 0.3 seconds. The batches were constituted by 10 Charles River CDl mice, weighing between 20 and 24 g. The products were administered by the oral route, 60 minutes before the electric shock. The animals presenting no tonic extension of the rear limbs were considered as being protected from the convulsive crisis.

[2] = system: convulsions provoked by bicuculline in Charles River CDl mice; assay: Antagonism of the convulsions provoked by bicuculline; assay type: in vivo; details: mouse; oral, 60 min before bicuculline 0.8 mg/kg i.v.; read-out: Median effective dose (ED50) Antagonism of Bicuculline
Protocol: as §1
The batches were constituted by 10 Charles River CDl mice, weighing between 20 and 22 g. The products were administered by the oral route, 60 minutes before the bicuculline (0.8 mg/kg, i.v.). The appearance of tonic convulsions was noted during the 60 minutes following the injection of the bicuculline.

[3] = Lethal dose in the mouse after acute administration; details: in vivo; for mortality at 72 h: po, read-out: % of toxicity (animals which die)
Protocol: The products were administered by the oral route to batches of 5 female Charles River CDl mice, weighing between 20 and 24 g. They were solubilized in 0.1N HCl.
Toxicity was noted during the 72 hours following administration of the products. The LD50 was calculated for two products.
The results expressed in percentage of animals which die in the […] consecutive to the oral administration of the products are noted in the preceding Table.

[4] = system: spontaneous motility of female Charles River CDl mice; assay: Effect of the products on the spontaneous motility (actimeter test); assay type: in vivo; details: Mus musculus, po, 0.75 h; 150 mg/kg p.o.; 45 min after administration, recorded 10 min; vs controls; ** p 0,01 (Student test); read-out: Locomotor activity Score (p.cent/controls)
[5] = system: spontaneous motility of female Charles River CDl mice; assay: as above; assay type: in vivo; details: Mus musculus, po, 0.75 h, 45 min after administration, recorded 10 min, vs controls, * p 0,05, ** p 0,01 (Student test), read-out: Locomotor activity Score (p.cent/controls); for change in vivo at 100 mg/kg: 100 mg/kg p.o.; for change in vivo at 250 mg/kg: 250 mg/kg p.o.
Protocol: The sedative effect is translated by the reduction of the spontaneous motility of the animals. This was measured by the actimeter test developed by BOISSIER and SIMON (1965). The equipment was composed of actimetric cages, of the Apelab type (26×21.5×10 cm), through which pass two light rays which act on a photoelectric cell. The batches were constituted by 12 female Charles River CDl mice weighing between 20 and 24 g. The animals were placed individually in the cages 45 minutes after the oral administration of the products at the dose of 250 mg/kg or at the dose of 100 mg/kg. Each passage through a light beam was counted by an individual meter. The scores corresponding to the movements of the animals were recorded for 10 minutes and compared with the scores made by the batches of control animals, treated solely by the vehicle (0.1N HCl).

[6] = system: loss of the turn-around reflex in Charles River CDl mice; assay: Potentialization of narcosis by pentobarbital; assay type: in vivo; details: po; mouse; product 60 min before pentobarbital 20 mg/kg i.p.
Protocol: With a view to assessing the hypnogenic power of the products, we have studied their capacity to potentialize the effects of a subnarcotic dose of pentobarbital in the mouse. The batches were constituted by 10 Charles River CDl mice, weighing between 20 and 24 g. The pentobarbital (20 mg/kg, i.p.) was administered 60 minutes after administration of the products. The criterion of sleep-induction retained was the loss of the turn-around reflex.

Compound	ED50 [1] [mg/kg]	ED50 [2] [mg/kg]	mortality at 72 h ([3]; 250 mg/kg p.o.) [%]	mortality at 72 h ([3]; 500 mg/kg p.o.) [%]	mortality at 72 h ([3]; 1000 mg/kg p.o.) [%]	change in vivo at 150 mg/kg [4] [%]	change in vivo at 100 mg/kg [5] [%]	change in vivo at 250 mg/kg [5] [%]	ED50 [6] [mg/kg]	LD50 at 72 h ([3]; oral, calculated, read-out: LD50 (DL50)) [mg/kg]
OC1CCN(c2ccc(-c3cc(Cl)ccc3Cl)nn2)CC1 [SR 41932]	30	131	0	0	100	-59	–	–	–	–
OC1CCN(c2ccc(-c3ccc(F)cc3)nn2)CC1 [SR 41184]	48	–	0	60	100	–	-91	–	–	–
CNC(=O)OC1CCN(c2ccc(-c3ccccc3Cl)nn2)CC1 [SR 41820, 3-(4-methylcarbamoyloxy-piperidino)-6-(2-chloro-phenyl)pyridazine]	10	13	–	–	–	–	–	–	–	–
OC1CCN(c2ncc(Cl)c(-c3ccccc3Cl)n2)CC1 [CM 40858, Hydrobromide of 5-chloro-6-(2-chlorophenyl)-2-(4-hydroxy-piperidino)pyrimidine]	49	–	0	0	0	–	–	-20	–	–
OC1CCN(c2ccc(-c3ccccc3Cl)nn2)C1 (stereo not drawn) [SR 41254]	–	–	0	0	20	–	-34	–	–	–
OC1CCN(c2ccc(-c3ccc(Cl)cc3)nn2)CC1 [CM 41127]	28	98	0	0	–	–	-68	–	–	–
O=[N+]([O-])c1ccccc1-c1ccc(N2CCC(O)CC2)nn1 [SR 41673, 3-(4-hydroxy-piperidino)-6-(2-nitrophenyl)-pyridazine]	27	81	0	0	20	–	–	-61	–	–
OCC1CCN(c2ccc(-c3ccccc3Cl)nn2)C1 (stereo not drawn) [SR 41259]	–	–	–	–	–	–	-19	–	–	–
OC1CCN(c2ccc(-c3ccccc3)nn2)CC1 [SR 41171]	86	83	0	0	100	–	-34	–	–	–
OC1CCN(c2ccc(-c3ccc(Cl)c(Cl)c3)nn2)CC1 [SR 41155]	–	–	0	100	100	–	-82	–	20	–
O=C1CCN(c2ccc(-c3ccccc3Cl)nn2)CC1 [SR 42488, 3-(4-oxo-iperidino)-6-(2-chlorophenyl)pyridazine]	40	35	0	0	0	–	–	–	67	–
OC1CCN(c2nccc(-c3ccc(Cl)cc3)n2)CC1 [SR 41554]	145	147	0	0	0	–	–	-26	66	–
OCCN(CCO)c1nccc(-c2ccc(Cl)cc2)n1 [SR 41590]	–	–	0	0	40	–	–	–	–	–
OCCN(CCO)c1nccc(-c2ccccc2Cl)n1 [SR 41591]	–	–	0	0	0	–	–	–	–	–
Oc1ccccc1-c1ccc(N2CCC(O)CC2)nn1 [SR 41559]	–	–	0	0	0	–	–	-66	–	–
OCCC1CCN(c2ccc(-c3ccccc3Cl)nn2)CC1 [SR 41261]	–	–	–	–	–	–	-27	–	–	–
OC1CCN(c2ncc(Cl)c(-c3ccc(Cl)cc3)n2)CC1 [SR 41556]	–	–	0	0	0	–	–	-29	–	–
OC1CCN(c2ccc(-c3ccccc3Cl)nn2)CC1 [CM 40907, 3-(4-hydroxy-piperidino)-6-(2-chlorophenyl)pyridazine]	16	38	–	–	–	–	-66	–	96	807
OC1CCN(c2ccc(-c3ccccc3F)nn2)CC1 [SR 41558]	115	30	0	0	80	–	–	-93	–	–
O=C(OC1CCN(c2ccc(-c3ccccc3Cl)nn2)CC1)C1CC1 [SR 41174]	92	–	–	–	–	–	-15	–	–	–
CCCC(=O)OC1CCN(c2ccc(-c3ccccc3Cl)nn2)CC1 [SR 41172, 3-(4-butyroyloxypiperidino)-6-(2-chlorophenyl)-pyridazine]	28	39	0	0	100	–	-32	–	–	–
COc1ccc(-c2ccc(N3CCC(O)CC3)nn2)cc1 [SR 41185]	–	–	0	0	0	–	–	-78	–	–
OC1CCN(c2ccc(-c3cccc4ccccc34)nn2)CC1 [SR 42399]	38	–	0	0	–	–	–	–	–	–
OC1CCN(c2ccc(-c3cccc(Cl)c3)nn2)CC1 [SR 41188]	45	–	0	0	60	–	-77	–	–	–
OC1CCN(c2ccc(-c3cccc(C(F)(F)F)c3)nn2)CC1 [CM 40857]	63	–	–	–	–	–	-87	–	–	–
Clc1ccccc1-c1ccc(N2CCC3(CC2)OCCO3)nn1 [SR 42487, 3-[1,4-dioxa-8-aza-spiro[4,5]decane-8-yl]-6-(2-chloro-phenyl)pyridazine]	57	–	0	0	0	–	-42	–	–	–
